In the NIST ThermoML archive (doi:10.1016/j.fluid.2011.03.008):

Columns and labels:
[1] = for surface tension liquid-gas: Plate tensiometer; for mass density: 101.33 kPa, Liquid, Vibrating tube method
[2] = xn = mol fraction of the nth substance listed; settings: 293.15 K; for mass density: 101 kPa, Liquid, Vibrating tube method

CCn1cc[n+](C)c1.COS(=O)(=O)[O-] [1-ethyl-3-methylimidazolium methylsulfate]
[1]
Settings	mass density [kg/m3]	surface tension liquid-gas [mN/m]
283.15 K	1273.4	53.54
288.15 K	1270.1	53.28
293.15 K	1267	52.99
298.15 K	1262.9	52.62
303.15 K	1259.4	52.32
308.15 K	1255.8	52.03
313.15 K	1252.9	51.72
318.15 K	1249.9	51.44
323.15 K	1246.9	51.07
328.15 K	1243.5	50.68
333.15 K	1240.3	50.41

CCn1cc[n+](C)c1.COS(=O)(=O)[O-] [1-ethyl-3-methylimidazolium methylsulfate] + CCCCO
[2], Ring tensiometer
Settings	surface tension liquid-gas [mN/m]
x1 = 0.032	23.96
x1 = 0.071	24.3
x1 = 0.1	24.39
x1 = 0.2306	25.51
x1 = 0.3	26.11
x1 = 0.3996	27.13
x1 = 0.4989	28.16
x1 = 0.5993	28.58
x1 = 0.695	28.61
x1 = 0.7864	33.18
x1 = 0.9206	39.12
x1 = 0.9628	43.21
x1 = 1	52.62

[2]
Settings	mass density [kg/m3]
x1 = 0.032	837.1
x1 = 0.071	868.3
x1 = 0.1	890.3
x1 = 0.2306	978.5
x1 = 0.3	1017.9
x1 = 0.3996	1066.8
x1 = 0.4989	1109.3
x1 = 0.5993	1147.1
x1 = 0.695	1179.6
x1 = 0.7864	1207.2
x1 = 0.9206	1243.6
x1 = 1	1262.9

CCn1cc[n+](C)c1.COS(=O)(=O)[O-] [1-ethyl-3-methylimidazolium methylsulfate] + CCO
[2], Plate tensiometer
Settings	surface tension liquid-gas [mN/m]
x1 = 0.04	22.75
x1 = 0.0597	23.23
x1 = 0.08	23.62
x1 = 0.0999	24.08
x1 = 0.2	26.08
x1 = 0.3	28.59
x1 = 0.4	30.09
x1 = 0.5	32.19
x1 = 0.5998	34.22
x1 = 0.6993	38.92
x1 = 0.8005	44.18
x1 = 0.9009	49.23
x1 = 1	52.62

[2]
Settings	mass density [kg/m3]
x1 = 0.04	839.3
x1 = 0.0597	862.9
x1 = 0.08	885.6
x1 = 0.0999	906.5
x1 = 0.2	995.1
x1 = 0.3	1064.8
x1 = 0.4	1113.2
x1 = 0.5	1150.2
x1 = 0.5998	1179.8
x1 = 0.6993	1205.1
x1 = 0.8005	1227.1
x1 = 0.9009	1246.4
x1 = 1	1262.9

CCn1cc[n+](C)c1.COS(=O)(=O)[O-] [1-ethyl-3-methylimidazolium methylsulfate] + CO
[2], Plate tensiometer
Settings	surface tension liquid-gas [mN/m]
x1 = 0.05	24.19
x1 = 0.08	25.56
x1 = 0.0995	26.19
x1 = 0.2001	30.12
x1 = 0.3024	33.16
x1 = 0.4012	37.21
x1 = 0.4971	40.02
x1 = 0.6	43.02
x1 = 0.7004	45.59
x1 = 0.8003	48.06
x1 = 0.8971	50.63
x1 = 0.9389	51.59
x1 = 1	52.62

[2]
Settings	mass density [kg/m3]
x1 = 0.05	883.8
x1 = 0.08	928.9
x1 = 0.0995	957.2
x1 = 0.2001	1061.5
x1 = 0.3024	1122.2
x1 = 0.4012	1161.3
x1 = 0.4971	1189.3
x1 = 0.6	1212.1
x1 = 0.7004	1228
x1 = 0.8003	1242.3
x1 = 0.8971	1252.6
x1 = 0.9389	1256.7
x1 = 1	1262.9

CCCCO [butan-1-ol] + CCn1cc[n+](C)c1.COS(=O)(=O)[O-]
Settings	surface tension liquid-gas [mN/m]
[2], Ring tensiometer, x2 = 0	23.62

Settings	mass density [kg/m3]
[2], x2 = 0	809.6

CCO [ethanol] + CCn1cc[n+](C)c1.COS(=O)(=O)[O-]
Settings	surface tension liquid-gas [mN/m]
[2], Plate tensiometer, x2 = 0	22

Settings	mass density [kg/m3]
[2], x2 = 0	785.7

CO [methanol] + CCn1cc[n+](C)c1.COS(=O)(=O)[O-]
Settings	surface tension liquid-gas [mN/m]
[2], Plate tensiometer, x2 = 0	21.8

Settings	mass density [kg/m3]
[2], x2 = 0	791.2
